IC50 and inhibition data for 18 molecules are collected here from patent US7579356B2, “Thia-tetraazaacenaphthylene kinase inhibitors” (Janssen Pharmaceutica NV, priority 2005, dated 2009).

Type in all cases: biochemical
In one test the target is T1, HER-2 (Homo sapiens, UniProt P04626).
T1 construct: His6 with thrombin site (N); purchased Proqinase (Freiburg, Germany)
Nature of the test: HER-2 Kinase Assay. Particulars: for IC50: value in parentheses; for inhibition at 1 µM: test concentration of 1 μM. Put shortly:
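GST/HIS6-tagged HER-2 aa 679–1255 kinase with biotinylated polyGluTyr (1.5 ng/μL), 1 μM ATP plus γ-33P-ATP, Mg2+/Mn2+, DTT, Hepes pH 7.5; 1 h at 30 °C. Substrate phosphorylation captured on streptavidin scintillation plates after EDTA/PBS washes; values are % inhibition at 1 μM or IC50.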

In another test the target is T2, EGFR (Homo sapiens, UniProt P00533).
T2 construct: The intracellular portion of EGFR started at nucleotide 2189 (corresponding to amino acid 667) and ended at the termination codon; made in house; host or cells: Sf9 insect cells (baculovirus)
T2 sequence (P00533 669-1210 limits assumed): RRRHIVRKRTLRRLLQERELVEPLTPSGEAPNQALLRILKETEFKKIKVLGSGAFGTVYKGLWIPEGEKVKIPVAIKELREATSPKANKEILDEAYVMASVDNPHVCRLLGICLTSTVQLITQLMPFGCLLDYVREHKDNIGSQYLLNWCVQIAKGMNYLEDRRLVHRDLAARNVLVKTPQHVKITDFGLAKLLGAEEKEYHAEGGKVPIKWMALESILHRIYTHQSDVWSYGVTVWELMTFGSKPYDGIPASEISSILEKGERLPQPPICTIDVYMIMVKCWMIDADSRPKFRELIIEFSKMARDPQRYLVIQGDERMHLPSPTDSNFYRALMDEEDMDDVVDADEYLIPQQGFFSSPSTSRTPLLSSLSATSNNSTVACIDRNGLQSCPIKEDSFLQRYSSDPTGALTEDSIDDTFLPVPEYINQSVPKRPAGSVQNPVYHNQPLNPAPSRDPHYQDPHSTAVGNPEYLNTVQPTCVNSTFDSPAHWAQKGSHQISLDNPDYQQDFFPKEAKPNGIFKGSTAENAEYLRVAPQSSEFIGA
Nature of the test: EGFR Kinase Assay. Particulars: for IC50: GST-EGFR, ATP 5 μM; for inhibition at 2 µM: test concentration of 2 μM, compounds without an IC50, read-out: EGFR inhibition in percent. An outline of the steps:
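GST-fused human EGFR intracellular domain (from aa 667), Sf9-expressed, phosphorylated biotinylated polyGluTyr with 5 μM ATP plus γ-33P ATP in Tris pH 8.0, MgCl2, vanadate, 1 mM DTT, 1 h at 30 °C. Streptavidin Flashplate scintillation read; triplicate 16-point half-log series from 200 uM; IC50 from % inhibition vs log concentration, else % inhibition at 2 μM.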

In another test the target is T3, c-Src kinase (human) (Homo sapiens, UniProt P12931).
T3 construct: purchased Upstate Biotechnology, Lake Placid, N.Y
T3 sequence (P12931 whole entry): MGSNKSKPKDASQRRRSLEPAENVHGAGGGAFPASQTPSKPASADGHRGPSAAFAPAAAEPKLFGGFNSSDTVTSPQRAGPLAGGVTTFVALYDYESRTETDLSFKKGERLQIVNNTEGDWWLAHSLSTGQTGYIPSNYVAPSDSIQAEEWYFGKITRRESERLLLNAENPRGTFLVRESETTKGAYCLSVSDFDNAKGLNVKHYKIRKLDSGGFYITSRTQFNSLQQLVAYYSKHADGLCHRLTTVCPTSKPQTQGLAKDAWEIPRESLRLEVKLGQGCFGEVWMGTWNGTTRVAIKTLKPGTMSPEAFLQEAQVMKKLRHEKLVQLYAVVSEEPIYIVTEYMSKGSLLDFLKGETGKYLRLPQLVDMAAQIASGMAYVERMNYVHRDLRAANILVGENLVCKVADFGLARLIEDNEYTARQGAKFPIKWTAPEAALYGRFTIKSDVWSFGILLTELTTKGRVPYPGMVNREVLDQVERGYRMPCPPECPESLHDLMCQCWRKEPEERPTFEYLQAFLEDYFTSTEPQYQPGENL
Description: c-Src Kinase Assay. Particulars: test concentration of 2 μM; multiple values are separate assay results. Here is the method: A mixture of a 10× kinase buffer (80 mM MOPS at pH 7.0, 2 mM EDTA and 100 mM Magnesium Chloride), ATP (5 μM final from a 10 mM stock), a Cdc2 peptide KVEKIGEGTYGVVYK (100 μM final from a 2.5 mM stock), γ-^33P ATP (10 μCl/μL stock) and water (for a total of 20 μL/well) was added to each well of a Streptavidin Flashplate.
Test compound in 100% DMSO (0.5 μL) was added to the appropriate wells. Diluted c-Src kinase (human) (Accession Number SWISS-PROT P12931) (Upstate Biotechnology, Lake Placid, N.Y.) (diluted in a buffer consisting of 20 mM MOPS at pH 7.0, 1 mM EDTA, β-mercaptoethanol (0.1%), Brij-35 (0.01%), glycerol (5%), and 1 mg/mL bovine serum albumin) (2.5 μL) was added to the wells to initiate the reactions. The reaction plates were incubated at 30° C. for 40 min. The reaction was terminated by the addition of a 3% phosphoric acid solution (5 μL). The reaction product (10 μL) was spotted onto a P30 filtermat and washed for 5 minutes in phosphoric acid (75 mM). The wash sequence was repeated two more times, followed with one final wash in methanol. The plates were then dried, sealed and read on the TopCount scintillation counter after adding 30 μL scintillation fluid.
The c-Src inhibition values were derived using the percent inhibition formula provided in Example 164 and are shown as percent in Table 2 at a test concentration of 2 μM. For those compounds with an IC50, the IC50 value in μM is shown in parentheses. For compounds with multiple test values, each value represents a separate assay result.

Molecules are shown by their SMILES. Where only a bound is given, the exact number is not on record here.

T1 sequence (P04626 679-1255): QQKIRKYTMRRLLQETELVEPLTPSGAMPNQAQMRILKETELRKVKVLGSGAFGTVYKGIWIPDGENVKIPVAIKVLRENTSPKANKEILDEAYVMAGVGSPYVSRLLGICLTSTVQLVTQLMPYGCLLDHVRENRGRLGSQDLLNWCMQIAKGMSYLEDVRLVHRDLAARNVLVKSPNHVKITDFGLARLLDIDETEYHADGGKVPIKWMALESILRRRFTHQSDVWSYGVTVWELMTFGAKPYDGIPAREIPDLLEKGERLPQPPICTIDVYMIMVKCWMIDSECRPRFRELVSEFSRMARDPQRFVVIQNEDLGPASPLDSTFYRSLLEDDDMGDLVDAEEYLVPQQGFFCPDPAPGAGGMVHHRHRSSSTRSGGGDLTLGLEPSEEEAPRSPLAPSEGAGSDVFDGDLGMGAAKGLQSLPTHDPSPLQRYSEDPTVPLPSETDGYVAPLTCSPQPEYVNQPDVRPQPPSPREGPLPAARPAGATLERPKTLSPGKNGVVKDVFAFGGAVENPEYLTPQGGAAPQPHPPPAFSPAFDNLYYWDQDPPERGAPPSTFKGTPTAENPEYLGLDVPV

As for `O=C(Nc1ccc(NCCCN2CCOCC2)nc1)c1sc2ncnc3c2c1NC(=O)N3c1ccc(Br)cc1F` [Cpd 71, 5-(4-bromo-2-fluoro-phenyl)-4-oxo-4,5-dihydro-3H-1-thia-3,5,6,8-tetraaza-acenaphthylene-2-carboxylic acid [6-(3-morpholin-4-yl-propylamino)-pyridin-3-yl]-amide], the IC50 (as a rule, the concentration that gives 50% inhibition) at HER-2 stood at 1760 nM; against EGFR, 850 nM. Besides, the inhibition (in general, the drop in the measured response relative to a control, in per cent) at 2 µM on c-Src kinase (human) amounted to 44%.

Regarding `COc1ccc(NC(=O)c2sc3ncnc4c3c2NC(=O)N4c2cc(Cl)ccc2OC)cc1OC` [Cpd 73, 5-(5-chloro-2-methoxy-phenyl)-4-oxo-4,5-dihydro-3H-1-thia-3,5,6,8-tetraaza-acenaphthylene-2-carboxylic acid (3,4-dimethoxy-phenyl)-amide], the inhibition at 1 µM against HER-2 is -14%. Moreover, the inhibition at 2 µM was 51% on EGFR and -17% on c-Src kinase (human).

Consider `COc1ccc(Cl)c(N2C(=O)Nc3c(C(=O)Nc4ccc(OCCN5CCCCC5)c(OC)c4)sc4ncnc2c34)c1` [Cpd 88, 5-(2-chloro-5-methoxy-phenyl)-4-oxo-4,5-dihydro-3H-1-thia-3,5,6,8-tetraaza-acenaphthylene-2-carboxylic acid [3-methoxy-4-(2-piperidin-1-yl-ethoxy)-phenyl]-amide], for which the inhibition at 2 µM at c-Src kinase (human) turned out to be 43%.

As to `COc1cc(NC(=O)c2sc3ncnc4c3c2NC(=O)N4c2ccc(OCc3ccco3)c(Cl)c2)ccc1CN1CCOCC1` [Cpd 246, 5-[3-chloro-4-(furan-2-ylmethoxy)-phenyl]-4-oxo-4,5-dihydro-3H-1-thia-3,5,6,8-tetraaza-acenaphthylene-2-carboxylic acid (3-methoxy-4-morpholin-4-ylmethyl-phenyl)-amide], the results for the IC50 at HER-2 and on EGFR were 47 nM and 22 nM, respectively.

For `CCOC(=O)c1sc2ncnc3c2c1NC(=O)N3c1ccc(Sc2ccccc2)cc1` [Cpd 210, 4-oxo-5-(4-phenylsulfanyl-phenyl)-4,5-dihydro-3H-1-thia-3,5,6,8-tetraaza-acenaphthylene-2-carboxylic acid ethyl ester], the values for the IC50 on HER-2 and on EGFR were > 10000 nM and 615 nM, respectively.

As to `COc1cc(NC(=O)c2sc3ncnc4c3c2NC(=O)N4c2ccc(Sc3ccccc3)cc2)ccc1CN1CCOCC1` [Cpd 219, 4-oxo-5-(4-phenylsulfanyl-phenyl)-4,5-dihydro-3H-1-thia-3,5,6,8-tetraaza-acenaphthylene-2-carboxylic acid (3-methoxy-4-morpholin-4-ylmethyl-phenyl)-amide], the IC50 is 58 nM at HER-2 and 127 nM on EGFR.

Take `CCOC(=O)C=Cc1ccc(NC(=O)c2sc3ncnc4c3c2NC(=O)N4c2ccc3nc(Cc4cccc(F)c4)[nH]c3c2)cc1` [Cpd 206, 3-[4-({5-[2-(3-fluoro-benzyl)-3H-benzoimidazol-5-yl]-4-oxo-4,5-dihydro-3H-1-thia-3,5,6,8-tetraaza-acenaphthylene-2-carbonyl}-amino)-phenyl]-acrylic acid ethyl ester]: the IC50 on HER-2 was ~100000 nM. For the same molecule, the inhibition at 2 µM on EGFR stood at 12%.

Turning to `O=C(Nc1ccc(CN2CCOCC2)cc1)c1sc2ncnc3c2c1NC(=O)N3c1ccc(Br)cc1` [Cpd 196, 5-(4-bromo-phenyl)-4-oxo-4,5-dihydro-3H-1-thia-3,5,6,8-tetraaza-acenaphthylene-2-carboxylic acid (4-morpholin-4-ylmethyl-phenyl)-amide], the IC50 on HER-2 was determined as 122 nM; against EGFR, 206 nM.

In the case of `CN1CCC(NC(=O)c2sc3ncnc4c3c2NC(=O)N4c2ccc(Oc3ccccc3)cc2)CC1` [Cpd 211, 4-oxo-5-(4-phenoxy-phenyl)-4,5-dihydro-3H-1-thia-3,5,6,8-tetraaza-acenaphthylene-2-carboxylic acid (1-methyl-piperidin-4-yl)-amide], the figures for the IC50 on HER-2 and at EGFR were 518 nM and 63 nM, respectively.

As for `CN1CCC(NC(=O)c2sc3ncnc4c3c2NC(=O)N4c2ccc(Sc3ccccc3)cc2)CC1` [Cpd 191, 4-oxo-5-(4-phenylsulfanyl-phenyl)-4,5-dihydro-3H-1-thia-3,5,6,8-tetraaza-acenaphthylene-2-carboxylic acid (1-methyl-piperidin-4-yl)-amide], the IC50 on HER-2 came out at 62 nM; against EGFR, 18 nM.

As to `O=C(Nc1ccc(CN2CCCCC2)cc1)c1sc2ncnc3c2c1NC(=O)N3c1ccc(Cl)cc1Cl` [Cpd 25, 5-(2,4-dichloro-phenyl)-4-oxo-4,5-dihydro-3H-1-thia-3,5,6,8-tetraaza-acenaphthylene-2-carboxylic acid (4-piperidin-1-ylmethyl-phenyl)-amide], the values for the IC50 at HER-2 and against EGFR were 768 nM and 168 nM, respectively.

On to `COc1cc(NC(=O)c2sc3ncnc4c3c2NC(=O)N4c2cccc(Br)c2)ccc1CN1CCOCC1` [Cpd 184, 5-(3-bromo-phenyl)-4-oxo-4,5-dihydro-3H-1-thia-3,5,6,8-tetraaza-acenaphthylene-2-carboxylic acid (3-methoxy-4-morpholin-4-ylmethyl-phenyl)-amide], for which the results for the IC50 on HER-2 and against EGFR were 79 nM and 17 nM, respectively.

Take `COc1ccc(Cl)cc1N1C(=O)Nc2c(C(=O)Nc3ccc(CN(C)C[C@H]4CCCO4)cc3)sc3ncnc1c23` [Cpd 75, 5-(5-chloro-2-methoxy-phenyl)-4-oxo-4,5-dihydro-3H-1-thia-3,5,6,8-tetraaza-acenaphthylene-2-carboxylic acid [4-({methyl-[(2R)-tetrahydro-furan-2-ylmethyl]-amino}-methyl)-phenyl]-amide]: the inhibition at 1 µM on HER-2 was 2%. Moreover, at EGFR, the inhibition at 2 µM came out at 46%.

Consider `O=C(Nc1ccc(C(O)CN2CCOCC2)cc1)c1sc2ncnc3c2c1NC(=O)N3c1ccc(Oc2ccccc2)cc1` (centres unmarked) [Cpd 174, 4-oxo-5-(4-phenoxy-phenyl)-4,5-dihydro-3H-1-thia-3,5,6,8-tetraaza-acenaphthylene-2-carboxylic acid [4-(1-hydroxy-2-morpholin-4-yl-ethyl)-phenyl]-amide], for which the values for the IC50 at HER-2 and against EGFR were 818 nM and 18 nM, respectively.

`O=C(Nc1ccc(CN2CCOCC2)cc1)c1sc2ncnc3c2c1NC(=O)N3c1ccc(Oc2cccc(F)c2)c(Cl)c1` [Cpd 162, 5-[3-chloro-4-(3-fluoro-phenoxy)-phenyl]-4-oxo-4,5-dihydro-3H-1-thia-3,5,6,8-tetraaza-acenaphthylene-2-carboxylic acid (4-morpholin-4-ylmethyl-phenyl)-amide]: the IC50 on HER-2 was 82 nM; at EGFR, 26 nM.

As to `O=C(Nc1ccc(CN2CCOCC2)cc1)c1sc2ncnc3c2c1NC(=O)N3c1ccc(F)c(Cl)c1` [Cpd 13, 5-(3-chloro-4-fluoro-phenyl)-4-oxo-4,5-dihydro-3H-1-thia-3,5,6,8-tetraaza-acenaphthylene-2-carboxylic acid (4-morpholin-1-ylmethyl-phenyl)-amide], at HER-2, the inhibition at 1 µM turned out to be 40% and the IC50 was determined as 804 nM. The IC50 on EGFR was 41 nM.

Consider `CN(C)C1CCN(Cc2ccc(NC(=O)c3sc4ncnc5c4c3NC(=O)N5c3ccc(Oc4ccccc4)cc3)cc2)CC1` [Cpd 260, 4-oxo-5-(4-phenoxy-phenyl)-4,5-dihydro-3H-1-thia-3,5,6,8-tetraaza-acenaphthylene-2-carboxylic acid [4-(4-dimethylamino-piperidin-1-ylmethyl)-phenyl]-amide], for which the values for the IC50 on HER-2 and against EGFR were 28 nM and 37 nM, respectively.

Take `CC(C)(C)OC(=O)NC1CCN(Cc2ccc(NC(=O)c3sc4ncnc5c4c3NC(=O)N5c3ccc(Oc4ccccc4)cc3)cc2)CC1` [Cpd 258, [1-(4-{[4-oxo-5-(4-phenoxy-phenyl)-4,5-dihydro-3H-1-thia-3,5,6,8-tetraaza-acenaphthylene-2-carbonyl]-amino}-benzyl)-piperidin-4-yl]-carbamic acid tert-butyl ester]: the IC50 at HER-2 stood at 58 nM; against EGFR it was 53 nM.
